Columns and labels:
hCA IX = hCA IX (Homo sapiens, UniProt Q16790); test: Stopped flow CO2 hydrase assay; conditions: for Selectivity ratio I/IX: Ki hCA I / Ki hCA IX; for Selectivity ratio II/IX: Ki hCA II / Ki hCA IX
hCA XII = hCA XII (Homo sapiens, UniProt O43570); test: Stopped flow CO2 hydrase assay; conditions: for Selectivity ratio I/XII: Ki hCA I / Ki hCA XII; for Selectivity ratio II/XII: Ki hCA II / Ki hCA XII
UO-31 = test: NCI-60 single-dose antiproliferative assay (SRB); format: cell-based, human; conditions: UO-31, Renal cancer; for inhibition at 10 µM: Homo sapiens, UO-31, 10 μM single dose, read-out: Cell Growth inhibition Percent
Experimental: (§1) From the newly synthesized compounds, eleven compounds (4c, 4d, 5, 9a, 9b, 11a, 11b, 13b, 13c, 15b, and 15c) were selected by the National Cancer Institute (NCI) Developmental Therapeutics Program (DTP), Bethesda, Maryland, USA for the in vitro anti-proliferative activity evaluation. The selected compounds were examined at 10 μM dose against the NCI 60-cell line panel. This panel consists of nine cell line groups of leukemia, non-small cell lung carcinoma (NSCLC), melanoma, colon, CNS, ovarian, renal, prostate, and breast cancers. The results are reported as mean-graph of the percent growth relative to control and presented as percentage growth inhibition (GI%), furthermore, mean GI% of each compound over all panel cell lines was calculated (Table 1; Additional file 1; S3: In vitro biological activity).
(§2) From the newly synthesized compounds, eleven compounds were selected by the National Cancer Institute (NCI) Developmental Therapeutics Program (DTP), Bethesda, Maryland, USA for the in vitro anti-proliferative activity evaluation (For further details see supplementary materials).
(§3) NCI In-vitro Cancer Screening is a two-phase procedure that starts with the assessment of all compounds against the sixty NCI cell line panel depicting leukemia, NSCLC, CNS cancer, melanoma, prostate cancer, breast cancer, renal cancer, colon cancer and ovarian cancer cell lines at a single point of 10μM. The output from the single-dose screen is reportable as a mean graph.
(§4) The human tumor cell lines of the cancer screening panel were grown in RPMI 1640 medium containing 5% fetal bovine serum and 2 mM L-glutamine. For a typical screening experiment, cells were inoculated into 96 well microtiter plates in […] at plating densities ranging from 5000 to 40,000 cells/well depending on the doubling time of individual cell lines. After cell inoculation, the microtiter plates were incubated at 37 °C, 5% CO2, 95% air and 100% relative humidity for 24 h prior to addition of experimental drugs. After 24 h, two plates of each cell line were fixed in situ with trichloroacetic acid (TCA), to represent a measurement of the cell population for each cell line at the time of drug addition (Tz). Experimental drugs were solubilized in dimethyl sulfoxide at 400-fold the desired final maximum test concentration and stored frozen prior to use. At the time of drug addition, an aliquot of frozen concentrate was thawed and diluted to twice the desired final maximum test concentration with complete medium containing 50 µg/ml gentamicin. Aliquot of 100 µl of the drug dilution was added to the appropriate microtiter wells already containing 100 µl of medium, resulting in the required final drug concentration (10 µM). Triplicate wells were prepared for each individual dose. Following drug addition, the plates were incubated for an additional 48 h at 37 °C, 5% CO2, 95% air, and 100% relative humidity. For adherent cells, the assay was terminated by the addition of cold TCA. Cells were fixed in situ by the gentle addition of 50 µl of cold 50% (w/v) TCA (final concentration, 10% TCA) and incubated for 60 min at 4 °C. The supernatant was discarded, and the plates were washed five times with tap water and air dried. Sulforhodamine B (SRB) solution (100 µl) at 0.4% (w/v) in 1% acetic acid was added to each well, and plates were incubated for 10 min at room temperature. After staining, unbound dye was removed by washing five times with 1% acetic acid and the plates were air dried. Bound stain was subsequently solubilized with 10 mM trizma base, and the absorbance was read on an automated plate reader at a wavelength of 515 nm. For suspension cells, the methodology was the same except that the assay was terminated by fixing settled cells at the bottom of the wells by gently adding 50 µl of 80% TCA (final concentration, 16% TCA). […]

hCA II = hCA II (Homo sapiens, UniProt P00918); test: Stopped flow CO2 hydrase assay
hCA I = hCA I (Homo sapiens, UniProt P00915); test: Stopped flow CO2 hydrase assay
NCI 60 cancer cell lines = test: NCI-60 single-dose antiproliferative assay, mean over panel; format: cell-based; conditions: Homo sapiens; 10 μM single dose; mean over all NCI panel cell lines; read-out: MEAN % Growth inhibition
Experimental: as §1, §2, §3, §4

ACHN = test: NCI-60 single-dose antiproliferative assay (SRB); format: cell-based; conditions: Homo sapiens, 10 μM single dose, Renal cancer, read-out: Cell Growth inhibition Percent
Experimental: as §1, §2, §3, §4

SF-268 = test: NCI-60 single-dose antiproliferative assay (SRB); format: cell-based; conditions: Homo sapiens; 10 μM single dose; SF-268, CNS cancer; read-out: Cell Growth inhibition Percent
Experimental: as §1, §2, §3, §4

MDA-MB-231/ATCC = test: NCI-60 single-dose antiproliferative assay (SRB); format: cell-based; conditions: Homo sapiens, 10 μM single dose, Breast cancer, read-out: Cell Growth inhibition Percent
Experimental: as §1, §2, §3, §4

MCF7 = test: NCI-60 single-dose antiproliferative assay (SRB); format: cell-based; conditions: Homo sapiens; 10 μM single dose; MCF7, Breast cancer; read-out: Cell Growth inhibition Percent
Experimental: as §1, §2, §3, §4

HOP-62 = test: NCI-60 single-dose antiproliferative assay (SRB); format: cell-based; conditions: Homo sapiens; 10 μM single dose; HOP-62, Non-small cell lung cancer; read-out: Cell Growth inhibition Percent
Experimental: as §1, §2, §3, §4

SR = test: NCI-60 single-dose antiproliferative assay (SRB); format: cell-based; conditions: Homo sapiens, 10 μM single dose, Leukemia, read-out: Cell Growth inhibition Percent
Experimental: as §1, §2, §3, §4

HOP-92 = test: NCI-60 single-dose antiproliferative assay (SRB); format: cell-based; conditions: Homo sapiens; 10 μM single dose; HOP-92, Non-small cell lung cancer; read-out: Cell Growth inhibition Percent
Experimental: as §1, §2, §3, §4

PC-3 = test: NCI-60 single-dose antiproliferative assay (SRB); format: cell-based; conditions: Homo sapiens; 10 μM single dose; PC-3, Prostate cancer; read-out: Cell Growth inhibition Percent
Experimental: as §1, §2, §3, §4

KM12 = test: NCI-60 single-dose antiproliferative assay (SRB); format: cell-based; conditions: Homo sapiens; 10 μM single dose; KM12, Colon cancer; read-out: Cell Growth inhibition Percent
Experimental: as §1, §2, §3, §4

EKVX = test: NCI-60 single-dose antiproliferative assay (SRB); format: cell-based; conditions: Homo sapiens, 10 μM single dose, Non-small cell lung cancer, read-out: Cell Growth inhibition Percent
Experimental: as §1, §2, §3, §4

OVCAR-4 = test: NCI-60 single-dose antiproliferative assay (SRB); format: cell-based; conditions: Homo sapiens; 10 μM single dose; OVCAR-4, Ovarian Cancer; read-out: Cell Growth inhibition Percent
Experimental: as §1, §2, §3, §4

NCI-H226 = test: NCI-60 single-dose antiproliferative assay (SRB); format: cell-based; conditions: Homo sapiens; 10 μM single dose; NCI-H226, Non-small cell lung cancer; read-out: Cell Growth inhibition Percent
Experimental: as §1, §2, §3, §4

Sequence of hCA XII (O43570 25-354): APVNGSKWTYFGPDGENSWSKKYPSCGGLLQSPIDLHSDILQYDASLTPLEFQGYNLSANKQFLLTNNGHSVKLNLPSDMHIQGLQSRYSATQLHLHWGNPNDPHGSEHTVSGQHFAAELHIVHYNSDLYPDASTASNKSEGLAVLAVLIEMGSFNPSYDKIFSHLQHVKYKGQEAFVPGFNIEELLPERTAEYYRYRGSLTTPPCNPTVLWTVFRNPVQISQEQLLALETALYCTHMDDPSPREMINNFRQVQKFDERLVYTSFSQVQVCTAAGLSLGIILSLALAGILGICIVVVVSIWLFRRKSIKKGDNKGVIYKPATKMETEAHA
Sequence of hCA I (P00915 whole entry): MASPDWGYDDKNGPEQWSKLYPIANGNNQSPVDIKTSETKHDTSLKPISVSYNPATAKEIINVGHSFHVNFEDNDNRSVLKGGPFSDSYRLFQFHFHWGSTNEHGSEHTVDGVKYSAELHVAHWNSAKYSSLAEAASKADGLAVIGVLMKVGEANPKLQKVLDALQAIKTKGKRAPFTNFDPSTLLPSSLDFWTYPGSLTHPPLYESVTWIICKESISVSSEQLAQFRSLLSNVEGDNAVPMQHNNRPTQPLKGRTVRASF

| Ki (hCA IX) [nM] | Ki (hCA XII) [nM] | Ki (hCA II) [nM] | Ki (hCA I) [nM] | melting point [°C] | Selectivity ratio I/IX (hCA IX) | Compound | inhibition at 10 µM (UO-31) [%] | inhibition at 10 µM (NCI 60 cancer cell lines) [%] | inhibition at 10 µM (ACHN) [%] | inhibition at 10 µM (SF-268) [%] | inhibition at 10 µM (MDA-MB-231/ATCC) [%] | inhibition at 10 µM (MCF7) [%] | inhibition at 10 µM (HOP-62) [%] | inhibition at 10 µM (SR) [%] | inhibition at 10 µM (HOP-92) [%] | inhibition at 10 µM (PC-3) [%] | inhibition at 10 µM (KM12) [%] | inhibition at 10 µM (EKVX) [%] | inhibition at 10 µM (OVCAR-4) [%] | inhibition at 10 µM (NCI-H226) [%] | further results |
| --- | --- | --- | --- | --- | --- | --- | --- | --- | --- | --- | --- | --- | --- | --- | --- | --- | --- | --- | --- | --- | --- |
| 208 | 42.4 | 913 | 6350 | 158 to 160 | 30.48 | NS(=O)(=O)N/C=C1/C(=O)Nc2ccccc21 [Compound 5, 3-(sulfamidmethylene)indoline-2-one] | 34.6 | – | 10.9 | 2.04 | 5.14 | 6.19 | 9.49 | – | 11 | 5.36 | 1.51 | 18.8 | – | 8.23 | Selectivity ratio II/IX (hCA IX): 4.39; Selectivity ratio I/XII (hCA XII): 149.65; Selectivity ratio II/XII (hCA XII): 21.54 |
| 7860 | 8570 | 2660 | 9110 | – | 1.16 | O=C1Nc2ccccc2C1=CNc1ccc(CNc2ccc(S(=O)(=O)Nc3ncccn3)cc2)cc1 [Compound 11b, 4-{[4-({[2-Oxoindolin-3-ylidene]methyl}amino)benzyl]amino}-N-(pyrimidin-2-yl)benzenesulfonamide] | 39.3 | 7.38 | 16.7 | 1.02 | 8.34 | 37.2 | 11.3 | 42.2 | 15.4 | 14.2 | 77.3 | 16 | 11.5 | 16.8 | Selectivity ratio II/IX (hCA IX): 0.34; Selectivity ratio I/XII (hCA XII): 1.06; Selectivity ratio II/XII (hCA XII): 0.31; Cell Growth inhibition Percent (UO-31; 10 μM single dose): 39.47% |
| > 10000 | > 10000 | > 10000 | > 10000 | 260 to 262 | – | O=C1Nc2ccccc2C1=CNc1ccc(C(=O)C=CNc2nccs2)cc1 [Compound 13c, 3-{[(4-{3-[Thiazol-2-ylamino]acryloyl}phenyl)amino]methylene}indolin-2-one] | 16.2 | 3.28 | – | – | 10.7 | 28.1 | 12 | 6 | 11.4 | 15.3 | 59 | 16.8 | 3.49 | 1.09 | – |

Continued, compound first:

| Compound | Ki (hCA IX) [nM] | Ki (hCA XII) [nM] | Ki (hCA II) [nM] | Ki (hCA I) [nM] | melting point [°C] | Selectivity ratio I/IX (hCA IX) | inhibition at 10 µM (UO-31) [%] | inhibition at 10 µM (NCI 60 cancer cell lines) [%] | inhibition at 10 µM (ACHN) [%] | inhibition at 10 µM (SF-268) [%] | inhibition at 10 µM (MDA-MB-231/ATCC) [%] | inhibition at 10 µM (MCF7) [%] | inhibition at 10 µM (HOP-62) [%] | inhibition at 10 µM (SR) [%] | inhibition at 10 µM (HOP-92) [%] | inhibition at 10 µM (PC-3) [%] | inhibition at 10 µM (KM12) [%] | inhibition at 10 µM (EKVX) [%] | inhibition at 10 µM (OVCAR-4) [%] | inhibition at 10 µM (NCI-H226) [%] | further results |
| --- | --- | --- | --- | --- | --- | --- | --- | --- | --- | --- | --- | --- | --- | --- | --- | --- | --- | --- | --- | --- | --- |
| O=C1Nc2ccccc2C1=CNc1ccc(C(=O)O)cc1 [Compound 4c, 4-{[(2-Oxoindolin-3-ylidene)methyl]amino}benzoic acid] | > 10000 | > 10000 | 8670 | 6320 | > 300 | – | 49.7 | 3.71 | 1.58 | 16.4 | 4.54 | 1.59 | 32 | 4.7 | 16.4 | 7.71 | 49.2 | 24.3 | 13.3 | 11.4 | – |
| NS(=O)(=O)c1nnc(NC=C2C(=O)Nc3ccccc32)s1 [Compound 4d, 5-{[(2-Oxoindolin-3-ylidene)methyl]amino}-1,3,4-thiadiazole-2-sulfonamide] | 84.2 | 8.7 | 3.9 | 8.4 | 210 to 216 | 0.100 | 27.5 | – | 6.28 | – | 7.66 | 12.4 | 13.4 | 1.71 | 11.9 | 10.7 | 4.63 | 15.8 | 1.55 | 4.95 | Selectivity ratio II/IX (hCA IX): 0.046; Selectivity ratio I/XII (hCA XII): 0.966; Selectivity ratio II/XII (hCA XII): 0.448 |
| NS(=O)(=O)c1ccc(NCc2ccc(NC=C3C(=O)Nc4ccccc43)cc2)cc1 [Compound 11a, 4-{[4-({[2-Oxoindolin-3-ylidene]methyl}amino)benzyl]amino}benzenesulfonamide] | 217 | 78.6 | 746 | 321 | 195 to 200 | 1.48 | 44 | 2.58 | 7.22 | 11.3 | 16.5 | 23 | 30.5 | 18.7 | – | 7.36 | 13.9 | 47.4 | 12.6 | 19.1 | Selectivity ratio II/IX (hCA IX): 3.43; Selectivity ratio I/XII (hCA XII): 4.08; Selectivity ratio II/XII (hCA XII): 9.50 |
| O=C(Nc1ccc(NC=C2C(=O)Nc3ccccc32)cc1)Nc1nccs1 [Compound 15c, 1-{4-[((2-Oxoindolin-3-ylidene)methyl)amino]phenyl}-3-(thiazol-2-yl)urea] | > 10000 | > 10000 | > 10000 | > 10000 | – | – | 51.6 | 61.8 | 59.3 | 22.8 | 52 | 77.3 | 62.7 | 89.3 | 50.2 | 31.4 | 40.8 | 65.4 | 59.4 | 70 | – |
